# Laboratory results: patent publication US20070248996A1, “Modulators of beta-amyloid peptide aggregation comprising D-amino acids” (Paraecis Pharmaceuticals, Inc., priority 1995, published 2007)
# Square brackets hold non-standard residues; d marks the D form. Peptide text beside a SMILES is read from it. * marks the point of attachment. Isoquinolin(3-yl)carbonyl = O=C(c1cc2ccccc2cn1)*; Quinoline4carbonyl = O=C(c1ccnc2ccccc12)*; Acetyl(3-pyridyl) = O=C(Cc1cccnc1)*; Acetyl(4-pyridyl) = O=C(Cc1ccncc1)*; Benzoyl(4-OH) = O=C(c1ccc(O)cc1)*; d3Pal = N[C@H](Cc1cccnc1)C(=O)O; Isonicotinoyl = O=C(c1ccncc1)*; X1 = O=C(c1cc2cc(O)ccc2cc1O)*; X5 = O=C(c1nccc2ccccc12)*
# Molecular target: Aβ1-40 (Homo sapiens, UniProt P05067)
# Assay type: biochemical
# Design: ΔLag: unit not given here
# Settings: Table IV; hydrophobic modifying groups; 5 μM test compound
# Excerpt: The nucleation assay is employed to determine the ability of test compounds to alter (e.g. inhibit) the early events in formation of β-AP fibers from monomeric β-AP. Characteristic of a nucleated polymerization mechanism, a lag time is observed prior to nucleation, after which the peptide rapidly forms fibers as reflected in a linear rise in turbidity. The time delay before polymerization of β-AP monomer can be quantified as well as the extent of formation of insoluble fiber by light scattering (turbidity). Polymerization reaches equilibrium when the maximum turbidity reaches a plateau The turbidity of a solution of natural β-AP in the absence or presence of various concentrations of a β-amyloid modulator compound is determined by measuring the apparent absorbance of the solution at 405 nm (A405 nm) over time. The threshold of sensitivity for the measurement of turbidity is in the range of 15-20 μM β-AP. […] This assay can be performed using stirring or shaking to accelerate polymerization, thereby increasing the speed of the assay. Moreover the assay can be adapted to a 96-well plate format to screen multiple compounds.
# HFIP-solubilized peptide is sonicated in a waterbath sonicator for 5 min at highest setting, then evaporated to dryness under a stream of argon. The peptide film is resuspended in anhydrous dimethylsulfoxide (DMSO) at a concentration of 6.9 mg/ml (25× concentration), sonicated for 5 min as before, then filtered through a 0.2 micron nylon syringe filter (VWR cat. No.28196-050). Test compounds are dissolved in DMSO at a 100× concentration. […] Ten microliters of the mixture is then added to the bottom of a well of a Corning Costar ultra low binding 96-well plate (Coming Costar, Cambridge Mass.; cat. No. 2500). Ninety microliters of water is added to the well, the plate is shaken on a rotary shaken at a constant speed at room temperature for 30 seconds, an additional 100 μl of 2× PTL buffer (20 mM NaH2PO4, 300 mM NaCl, pH 7.4) is added to the well, the plate is reshaken for 30 seconds and a baseline (t=0) turbidity reading is taken by measuring the apparent absorbance at 405 nm using a Bio-Rad Model 450 Microplate Reader. The plate is then returned to the shaker and shaken continuously for 5 hours. Turbidity readings are taken at 15 minute intervals.
# β-amyloid aggregation in the absence of any modulators results in enhanced turbidity of the natural β-AP solution (i.e., an increase in the apparent absorbance at 405 nm over time). […]
# Aβ1-40, sequence (P05067 672-711): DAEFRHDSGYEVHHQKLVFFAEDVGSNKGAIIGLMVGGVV
row,Compound,ΔLag 5 μM
1,1-Adamantanecarbonyl-d(LVFF)-nh2 [PPI-492],1.1
2,4-Methylvaleryl-d(LVFFA)-nh2 [PPI-524],1.6

# Same assay, conditions: Table IX; 5 μM test compound
row,Compound,ΔLag 5 μM
1,"2,4-Dihydroxybenzoyl-d(LVFFA)-nh2 [PPI-532]",1.7
2,2-Formylphenoxyacetyl-d(LVFFA)-nh2 [PPI-554],2.6
3,2-Hydroxycinnamoyl-d(LVFFA)-nh2 [PPI-536],1.4
4,"3,4-Dihydroxycinnamoyl-d(AFFVL)-nh2 [PPI-569]",2.6
5,"3,4-Dihydroxycinnamoyl-d(LFFVL)-nh2 [PPI-593]",2.0
6,"3,4-Dihydroxycinnamoyl-d(LVFFA)-nh2 [PPI-543]",1.6
7,"3,5-Dihydroxy-2-naphthoyl-d(AFFVL)-nh2 [PPI-568]",>6
8,"3,7-Dihydroxy-2-naphthoyl-d(FFFVL)-nh2 [PPI-650]",2.2
9,"3,7-Dihydroxy-2-naphthoyl-d(LFFVL)-nh2 [PPI-648]",3.1
10,3-(2-Hydroxyphenyl)propionyl-d(AFFVL)-nh2 [PPI-610],4.5
11,3-(2-Hydroxyphenyl)propionyl-d(FFVL)-nh2 [PPI-615],2.0
12,3-(4-Hydroxyphenyl)propionyl-d(FFVL)-nh2 [PPI-616],1.5
13,3-Formylbenzoyl-d(LVFFA)-nh2 [PPI-546],1.9
14,3-Hydroxycinnamoyl-d(LVFFA)-nh2 [PPI-538],2.0
15,3-Hydroxyphenylacetyl-d(LVFF)-nh2 [PPI-483],2.9
16,4-(2-Hydroxyphenyl)propionyl-d(AFFVL)-nh2 [PPI-611],3.2
17,4-Hydroxy-3-methoxycinnamoyl-d(LVFFA)-nh2 [PPI-555],1.7
18,4-Hydroxybenzoyl-d(AFFVL)-nh2 [PPI-629],2.9
19,4-Hydroxybenzoyl-d(LFFFL)-nh2 [PPI-643],2.2
20,4-Hydroxycinnamoyl-d(AFFVL)-nh2 [PPI-587],3.7
21,4-Hydroxycinnamoyl-d(LVFFA)-nh2 [PPI-537],1.6
22,4-Hydroxyphenylacetyl-d(FFFVL)-nh2 [PPI-651],2.1
23,4-Hydroxyphenylacetyl-d(LFFVL)-nh2 [PPI-649],5.1
24,5-Hydantoinacetyl-d(LVFFA)-nh2 [PPI-539],2.4
25,(±)-Mandelyl-d(AFFVL)-nh2 [PPI-584],4.8
26,Ac-d(LFFFL)-nh2 [PPI-644],2.1

# Same assay, conditions: Table V; hydroxylated and oxygenated modifying groups; 5 μM test compound
row,Compound,ΔLag 5 μM
1,"2,4-Dihydroxybenzoyl-d(LVFF)-nh2 [PPI-486]",1.2
2,2-Hydroxyphenylacetyl-d(LVFF)-nh2 [PPI-481],2.0
3,"3,4-Dihydroxycinnamoyl-d(LVFF)-nh2 [PPI-491]",3.0
4,"3,5-Dihydroxy-2-naphthoyl-d(LVFF)-nh2 [PPI-487]",2.2
5,"3,5-Dihydroxy-2-naphthoyl-d(LVFFA)-nh2 [PPI-523]",3.8
6,3-Hydroxyphenylacetyl-d(LVFF)-nh2 [PPI-483],2.2
7,4-Hydroxycinnamoyl-d(LVFFA)-nh2 [PPI-537],1.0
8,(±)-Mandelyl-(±)-mandelyl-d(LVFFA)-nh2 [PPI-518],1.5
9,(±)-Mandelyl-d(LVFF)-nh2 [PPI-482 (isomer 1)],1.5
10,(±)-Mandelyl-d(LVFF)-nh2 [PPI-482 (isomer 2)],1.6

# Same assay, conditions: Table VIII; 5 μM test compound
row,Compound,ΔLag 5 μM
1,"3,5-Dihydroxy-2-naphthoyl-d(LVFFA)-nh2 [PPI-523]",2.1
2,"3,7-Dihydroxy-2-naphthoyl-d(LVFFA)-nh2 [PPI-548]",2.5
3,4-Hydroxyphenylacetyl-d(LVFFA)-nh2 [PPI-559],3.5

# Same assay, conditions: Table XI; 0.5 μM test compound
row,Compound,ΔLag
1,"CC(C)C[C@@H](N)C(=O)N[C@@H](C(=O)N[C@H](Cc1ccccc1)C(=O)N[C@H](Cc1ccccc1)C(=O)N[C@H](Cc1ccccc1)C(N)=O)C(C)C [PPI-656, H-d(LVFFF)-nh2] (H-[dL][dV][dF][dF][dF]-NH2)",2.3
2,"CC(C)C[C@@H](N)C(=O)N[C@@H](C(=O)N[C@H](Cc1ccccc1)C(=O)N[C@H](Cc1ccccc1)C(=O)N[C@@H](C(N)=O)C(C)C)C(C)C [PPI-657, H-d(LVFFV)-nh2] (H-[dL][dV][dF][dF][dV]-NH2)",1.7
3,"CC(C)C[C@@H](NC(=O)[C@H](NC(=O)[C@@H](Cc1ccccc1)NC(=O)[C@@H](Cc1ccccc1)NC(=O)[C@@H](Cc1cccnc1)NC(=O)c1cc2cc(O)ccc2cc1O)C(C)C)C(N)=O [PPI-664, 3,7-Dihidroxy-2-naphthol-d(Pal-FFVL)-nh2] (X1-[d3Pal][dF][dF][dV][dL]-NH2)",0
4,"CC(C)C[C@@H](NC(=O)[C@H](NC(=O)[C@@H](Cc1ccccc1)NC(=O)[C@@H](Cc1ccccc1)NC(=O)[C@@H](Cc1cccnc1)NC(=O)c1ccc(O)cc1)C(C)C)C(N)=O [PPI-665, 4-Hydroxybenzoyl-d(Pal-FFVL)-nh2] ({Benzoyl(4-OH)}-[d3Pal][dF][dF][dV][dL]-NH2)",1.5

# Same assay, conditions: Table XI; 2.5 μM test compound
row,Compound,ΔLag
1,"CC(C)C[C@@H](NC(=O)[C@H](NC(=O)[C@@H](Cc1ccccc1)NC(=O)[C@@H](Cc1ccccc1)NC(=O)[C@@H](C)NC(=O)Cc1ccncc1)C(C)C)C(N)=O [PPI-741, 4-Pyridylacetyl-d(AFFVL)-nh2] ({Acetyl(4-pyridyl)}-[dA][dF][dF][dV][dL]-NH2)",2.0

# Same assay, conditions: Table XI; 5 μM test compound
row,Compound,ΔLag
1,"CC(C)C[C@@H](N)C(=O)N[C@@H](C(=O)N[C@H](Cc1ccccc1)C(=O)N[C@H](Cc1ccccc1)C(=O)N[C@H](Cc1ccccc1)C(N)=O)C(C)C [PPI-656, H-d(LVFFF)-nh2] (H-[dL][dV][dF][dF][dF]-NH2)",>2.5
2,"CC(C)C[C@@H](N)C(=O)N[C@@H](C(=O)N[C@H](Cc1ccccc1)C(=O)N[C@H](Cc1ccccc1)C(=O)N[C@@H](C(N)=O)C(C)C)C(C)C [PPI-657, H-d(LVFFV)-nh2] (H-[dL][dV][dF][dF][dV]-NH2)",>10
3,"CC(C)C[C@@H](NC(=O)[C@H](NC(=O)[C@@H](Cc1ccccc1)NC(=O)[C@@H](Cc1ccccc1)NC(=O)[C@@H](Cc1cccnc1)NC(=O)c1cc2cc(O)ccc2cc1O)C(C)C)C(N)=O [PPI-664, 3,7-Dihidroxy-2-naphthol-d(Pal-FFVL)-nh2] (X1-[d3Pal][dF][dF][dV][dL]-NH2)",2
4,"CC(C)C[C@@H](NC(=O)[C@H](NC(=O)[C@@H](Cc1ccccc1)NC(=O)[C@@H](Cc1ccccc1)NC(=O)[C@@H](Cc1cccnc1)NC(=O)c1ccc(O)cc1)C(C)C)C(N)=O [PPI-665, 4-Hydroxybenzoyl-d(Pal-FFVL)-nh2] ({Benzoyl(4-OH)}-[d3Pal][dF][dF][dV][dL]-NH2)",2
5,"CC(C)C[C@@H](NC(=O)[C@H](NC(=O)[C@@H](Cc1ccccc1)NC(=O)[C@@H](Cc1ccccc1)NC(=O)[C@@H](C)NC(=O)Cc1cccnc1)C(C)C)C(N)=O [PPI-730, 3-Pyridylacetyl-d(AFFVL)-nh2] ({Acetyl(3-pyridyl)}-[dA][dF][dF][dV][dL]-NH2)",2
6,"CC(C)C[C@@H](NC(=O)[C@H](NC(=O)[C@@H](Cc1ccccc1)NC(=O)[C@@H](Cc1ccccc1)NC(=O)[C@@H](C)NC(=O)c1ccncc1)C(C)C)C(N)=O [PPI-732, Isonicotinoyl-d(AFFVL)-nh2] (Isonicotinoyl-[dA][dF][dF][dV][dL]-NH2)",<2
7,"CC(C)C[C@@H](NC(=O)[C@H](NC(=O)[C@@H](Cc1ccccc1)NC(=O)[C@@H](Cc1ccccc1)NC(=O)CN)C(C)C)C(N)=O [PPI-733, H-Glycyl-d(FFVL)-nh2] (H-G[dF][dF][dV][dL]-NH2)",0
8,"CC(C)C[C@@H](NC(=O)[C@H](NC(=O)[C@@H](Cc1ccccc1)NC(=O)[C@@H](Cc1ccccc1)NC(=O)[C@@H](C)NC(=O)CN)C(C)C)C(N)=O [PPI-734, H-Glycyl-d(AFFVL)-nh2]",>10
9,"CC(C)C[C@@H](NC(=O)[C@H](NC(=O)[C@@H](Cc1ccccc1)NC(=O)[C@@H](Cc1ccccc1)NC(=O)[C@@H](C)NC(=O)c1ccnc2ccccc12)C(C)C)C(N)=O [PPI-746, 4-Quinolinecarboxyl-d(AFFVL)-nh2] (Quinoline4carbonyl-[dA][dF][dF][dV][dL]-NH2)",2
10,"CC(C)C[C@@H](NC(=O)[C@H](NC(=O)[C@@H](Cc1ccccc1)NC(=O)[C@@H](Cc1ccccc1)NC(=O)[C@@H](C)NC(=O)c1nccc2ccccc12)C(C)C)C(N)=O [PPI-748, 1-Isoquinolinecarboxyl-d(AFFVL)-nh2] (X5-[dA][dF][dF][dV][dL]-NH2)",<3
11,CC(C)C[C@@H](NC(=O)[C@H](NC(=O)[C@@H](Cc1ccccc1)NC(=O)[C@@H](Cc1ccccc1)NC(=O)[C@@H](C)NC(=O)c1cc2ccccc2cn1)C(C)C)C(N)=O [PPI-749] ({Isoquinolin(3-yl)carbonyl}-[dA][dF][dF][dV][dL]-NH2),3
12,"CC(C)C[C@@H](NC(=O)c1ccc(O)cc1)C(=O)N[C@@H](C(=O)N[C@H](Cc1ccccc1)C(=O)N[C@H](Cc1ccc(O)cc1)C(=O)N[C@H](C)C(N)=O)C(C)C [PPI-772, 4-Hydroxybenzoyl-d(LVFYA)-nh2] ({Benzoyl(4-OH)}-[dL][dV][dF][dY][dA]-NH2)",2
13,"CC(C)C[C@@H](NC(=O)c1ccc(O)cc1)C(=O)N[C@@H](C(=O)N[C@H](Cc1ccc(O)cc1)C(=O)N[C@H](Cc1ccccc1)C(=O)N[C@H](C)C(N)=O)C(C)C [PPI-774, 4-Hydroxybenzoyl-d(LVYFA)-nh2] ({Benzoyl(4-OH)}-[dL][dV][dY][dF][dA]-NH2)",1
14,"CC(C)C[C@@H](NC(=O)c1ccc(O)cc1)C(=O)N[C@@H](C(=O)N[C@H](Cc1ccc(O)cc1)C(=O)N[C@H](Cc1ccc(O)cc1)C(=O)N[C@H](C)C(N)=O)C(C)C [PPI-775, 4-Hydroxybenzoyl-d(LVYYA)-nh2] ({Benzoyl(4-OH)}-[dL][dV][dY][dY][dA]-NH2)",1
